{"source": "patent US6432938B1", "about": "“19-nor-cholane steroids as neurochemical initators of change in human hypothalamic function” (Pherin Corporation, priority 1996, dated 2002)", "key": {"[1]": {"test_system": "vomeronasal organ (VNO)", "assay": "Electrovomerogram (EVG) after airborne delivery of substance to the vomeronasal organ", "format": "in vivo, human", "conditions": "2 second pulses to VNO, diluted in propylene glycol, number in cell = compound with effect", "source_text": "The stimulation and recording system consists of a “multifunctional miniprobe” described elsewhere (Monti-Bloch, L. and Grosser, B. l. (1991) “Effect of putative pheromones on the electrical activity of the human vomeronasal organ and olfactory epithelium,” J. Steroid Biochem. Molec. Bio. 39:573582). The recording electrode is a 0.3 mm silver ball attached to a small (0.1 mm) silver wire insulated with Teflon© the surface of the electrode is first treated to produce a silver chloride interface, and is then covered with gelatin It is positioned within a small caliber Teflon© catheter (dia=5 mm) such that the tip of the electrode protrudes approximately 2 mm. The Teflon© catheter is 10 cm in length and constitutes the terminal extension for a multichannel delivery system which delivers a continuous air stream carrying discreet pulses of chemosensory stimuli. The air stream first passes into a small chamber and is bubbled through a solution containing either a vomeropherin or an olfactant in a diluent or the diluent alone. A solenoid is used to rapidly redirect the air stream from the chamber to a route which bypasses the chamber. This creates a discreet pulse of stimulant in the air stream. A second, outer Teflon© tube with a diameter of 2 mm surrounds the catheter-electrode assemblage, and its central end is connected to an aspirator that provides continuous suction of 3 ml/s. This concentric arrangement of the outer suction tube allows the emitted chemosensory stimuli to be localized to an area we call a “minifield” (approx. dia=1 mm), and it avoids diffusion of substances either to the area outside the intended stimulation site or into the respiratory system. The entire stimulating and recording assemblage may be positioned either on the neurosensory epithelium within the VNo, or on the surface of the olfactory or respiratory epithelium.\nElectro-vomeronasogram (EVG): Recordings are carried out in a quiet room with the subject supine; the multi-functional miniprobe is initially stabilized within the nasal cavity using a nasal retractor placed in the vestibule. Reference and ground electrodes consist of silver discs (8 mm), both of which are positioned on the glabella.\nThe entrance to the VNO, or vomeronasal pit, is identified by first dilating the nasal aperture and vestibule. A 6×magnifying binocular loupe with halogen illumination is then used to introduce the tip of the Teflon© catheter and recording electrode assemblage into the VNo opening where it is stabilized at an approximate depth of 1 mm within the vomeronasal passage. Optimal placement of the recording electrode is signaled after testing for an adequate depolarization in response to a test substance.\nElectrical signals from the recording electrode are fed to a DC amplifier after which they are digitized, computer monitored, and stored. The peak-to-peak amplitude of the signals is measured, and the area under the depolarization wave is integrated, while continuously monitoring the signal both on the computer screen and on a digital oscilloscope. Artifacts produced by respiratory movements are deleted by training the subjects to practice mouth breathing with velopharyngeal closure. Samples of vomeropherins in concentration of 25-800 fmoles are delivered in the continuous air stream for durations from 300 milliseconds to 1 second. Usually, intervals of 3 to 5 minutes separated each series of short test pulses. All components of the lines carrying the test stimuli are made of Teflon©, glass or stainless steel and are carefully cleaned and sterilized before each use. Activity was recorded using standard electroencephalographic (EEG) electrodes placed at positions Cz-Al and Tz-Al of the international […] system; the ground electrode was placed on the mastoid process. Skin temperature (ST) was recorded by a small (1.0 mm) thermistor probe placed in the right ear lobe. Respiratory frequency (RF) was measured with an adjustable strain gauge placed around the lower thorax. […]"}, "[2]": {"test_system": "vomeronasal organ (VNO)", "assay": "Reflex/autonomic responses (RF, CF, BT, EMG, EEG) to stimulation of the VNO with airborne substance", "format": "in vivo, human", "conditions": "for BT (body temperature): compound found to have an effect / EEG-T (electroencephalogram from temporal region): compound found to have an effect / RF (respiratory frequency): compound found to have an effect / EEG-V (electroencephalogram from vertex): compound found to have an effect / EMG (electromyogram): compound found to have an effect / CF (cardiac frequency): compound found to have an effect: 2 second pulses to VNO, number in cell = compound with effect; for gender dimorphic effects: males versus females, all recorded parameters", "procedure": "Electrical signals from the recording electrode are fed to a DC amplifier after which they are digitized, computer monitored, and stored. The peak-to-peak amplitude of the signals is measured, and the area under the depolarization wave is integrated, while continuously monitoring the signal both on the computer screen and on a digital oscilloscope. Artifacts produced by respiratory movements are deleted by training the subjects to practice mouth breathing with velopharyngeal closure. Samples of vomeropherins in concentration of 25-800 fmoles are delivered in the continuous air stream for durations from 300 milliseconds to 1 second. Usually, intervals of 3 to 5 minutes separated each series of short test pulses. All components of the lines carrying the test stimuli are made of Teflon©, glass or stainless steel and are carefully cleaned and sterilized before each use. Activity was recorded using standard electroencephalographic (EEG) electrodes placed at positions Cz-Al and Tz-Al of the international […] system; the ground electrode was placed on the mastoid process. Skin temperature (ST) was recorded by a small (1.0 mm) thermistor probe placed in the right ear lobe. Respiratory frequency (RF) was measured with an adjustable strain gauge placed around the lower thorax. All electrical signals were DC amplified, digitized (MP-100, Biopac systems) and continuously monitored utilizing a computer.\nStudies were conducted to determine the central nervous system (CNS) reflex responses to vomeropherin stimulation of the VNO. The sexually dimorphic local responses induced by vomeropherins were sometimes mirrored in the autonomic response of male & female subjects.\nFourteen different substances were tested against a control. All substances were diluted in propylene glycol, in 2 ml glass bottles coded with numbers. The solvent (propylene glycol) was used as control.\nThe airborne substances were delivered to the vomeronasal organ (VNO) in 2 second pulses, using a miniprobe. Several parameters were recorded Electrovomerogram (EVG), respiratory frequency (RF), cardiac frequency (ECG), electrodermal activity (EDA), body temperature (BT), electromyogram (EMG), and electroencephalogram from vertex (EEG-V) and temporal region (EEG-T).\nA summary of the results is shown in Table I. Each number indicates the compound found to have an effect in females or in males, on the parameter indicated in the upper row of the table. (For the equivalence of each number to the corresponding compound in males, and in females, see the compound numbers)."}}}
{"smiles": "CCCC=C1CCC2C3CCc4cc(O)ccc4C3=CCC12C", "note": "(stereo not drawn) [Compound 1, 19,21-BISNORCHOLA-1,3,5(10),9(11),17(20)-PENTAEN-3-OL]", "values": [{"measurement": "EVG (electrovomerogram): compound found to have an effect", "setting": "[1]; males (M)", "value": 1}, {"measurement": "BT (body temperature): compound found to have an effect", "setting": "[2]; males (M)", "value": 1}]}
{"smiles": "CCCCC1=CC[C@H]2[C@@H]3CCC4=C(CC[C@H](O)C4)[C@H]3CC[C@]12C", "note": "[Compound 2, 19,21-BISNORCHOLA-5(10),16-DIEN-3beta-OL]", "values": [{"measurement": "EVG (electrovomerogram): compound found to have an effect", "setting": "[1]; females (F)", "value": 2}, {"measurement": "EVG (electrovomerogram): compound found to have an effect", "setting": "[1]; males (M)", "value": 2}, {"measurement": "EEG-T (electroencephalogram from temporal region): compound found to have an effect", "setting": "[2]; females (F)", "value": 2}, {"measurement": "BT (body temperature): compound found to have an effect", "setting": "[2]; males (M)", "value": 2}, {"measurement": "RF (respiratory frequency): compound found to have an effect", "setting": "[2]; males (M)", "value": 2}, {"measurement": "gender dimorphic effects", "setting": "[2]", "value": "gender specific"}]}
{"smiles": "CCCC=C1CC[C@H]2[C@@H]3C=Cc4cc(O)ccc4[C@H]3CC[C@]12C", "note": "[Compound 3, 19,21-BISNORCHOLA-1,3,5(10),6,17(20)-PENTAEN-3-OL]", "values": [{"measurement": "EVG (electrovomerogram): compound found to have an effect", "setting": "[1]; females (F)", "value": 3}, {"measurement": "EVG (electrovomerogram): compound found to have an effect", "setting": "[1]; males (M)", "value": 3}, {"measurement": "EEG-V (electroencephalogram from vertex): compound found to have an effect", "setting": "[2]; females (F)", "value": 3}, {"measurement": "BT (body temperature): compound found to have an effect", "setting": "[2]; males (M)", "value": 3}]}
{"smiles": "CCCCC1=CC[C@H]2[C@@H]3CCC4=CC(=O)CC[C@]4(O)[C@H]3CC[C@]12C", "note": "[Compound 4, 10beta-HYDROXY-19,21-BISNORCHOLA-4,16-DIEN-3-ONE]", "values": [{"measurement": "RF (respiratory frequency): compound found to have an effect", "setting": "[2]; females (F)", "value": 4}, {"measurement": "BT (body temperature): compound found to have an effect", "setting": "[2]; males (M)", "value": 4}, {"measurement": "EMG (electromyogram): compound found to have an effect", "setting": "[2]; males (M)", "value": 4}]}
{"smiles": "CCCC=C1CCC2C3CCC4=CC(O)CCC4C3CCC12C", "note": "(stereo not drawn) [Compound 5, 19,21-BISNORCHOLA-4,17(20)-DIEN-3beta-OL]", "values": [{"measurement": "EVG (electrovomerogram): compound found to have an effect", "setting": "[1]; females (F)", "value": 5}, {"measurement": "RF (respiratory frequency): compound found to have an effect", "setting": "[2]; females (F)", "value": 5}]}
{"smiles": "CC(O)CO", "note": "(stereo not drawn) [Compound 6, PROPYLENE GLYCOL]", "values": [{"measurement": "EVG (electrovomerogram): compound found to have an effect", "setting": "[1]; females (F)", "value": 6}, {"measurement": "EEG-T (electroencephalogram from temporal region): compound found to have an effect", "setting": "[2]; females (F)", "value": 6}]}
{"smiles": "CCCC=C1CC[C@H]2c3ccc4cc(O)ccc4c3CC[C@]12C", "note": "[Compound 7, 19,21-BISNORCHOLA-1,3,5,7,9,17(20)-HEXAEN-3-OL]", "values": [{"measurement": "EVG (electrovomerogram): compound found to have an effect", "setting": "[1]; females (F)", "value": 7}, {"measurement": "EVG (electrovomerogram): compound found to have an effect", "setting": "[1]; males (M)", "value": 7}, {"measurement": "BT (body temperature): compound found to have an effect", "setting": "[2]; males (M)", "value": 7}, {"measurement": "EEG-T (electroencephalogram from temporal region): compound found to have an effect", "setting": "[2]; males (M)", "value": 7}]}
{"smiles": "C=C(CCC)[C@H]1CC[C@H]2[C@@H]3CCc4cc(O)ccc4[C@H]3CC[C@]12C", "note": "[Compound 8, 19-NORCHOLA-1,3,5(10),20-TETRAEN-3-OL]", "values": [{"measurement": "CF (cardiac frequency): compound found to have an effect", "setting": "[2]; females (F)", "value": 8}, {"measurement": "EMG (electromyogram): compound found to have an effect", "setting": "[2]; females (F)", "value": 8}, {"measurement": "EEG-V (electroencephalogram from vertex): compound found to have an effect", "setting": "[2]; males (M)", "value": 8}]}
{"smiles": "CCCC=C1CCC2C3=CCc4cc(O)ccc4C3CCC12C", "note": "(stereo not drawn) [Compound 9, 19,21-BISNORCHOLA-1,3,5(10),7,17(20)-PENTAEN-3-OL]", "values": [{"measurement": "CF (cardiac frequency): compound found to have an effect", "setting": "[2]; females (F)", "value": 9}]}
{"smiles": "CCCCC1=CC[C@H]2[C@@H]3CCC4=C(CC[C@@H](O)C4)[C@H]3CC[C@]12C", "note": "[Compound 10, 19,21-BISNORCHOLA-5(10),16-DIEN-3alpha-OL]", "values": [{"measurement": "CF (cardiac frequency): compound found to have an effect", "setting": "[2]; females (F)", "value": 10}, {"measurement": "EEG-T (electroencephalogram from temporal region): compound found to have an effect", "setting": "[2]; females (F)", "value": 10}, {"measurement": "EEG-T (electroencephalogram from temporal region): compound found to have an effect", "setting": "[2]; males (M)", "value": 10}, {"measurement": "EEG-V (electroencephalogram from vertex): compound found to have an effect", "setting": "[2]; males (M)", "value": 10}, {"measurement": "gender dimorphic effects", "setting": "[2]", "value": "gender specific"}]}
{"smiles": "CCCCC1=CC[C@H]2[C@@H]3CCc4cc(OC)ccc4[C@H]3CC[C@]12C", "note": "[Compound 11, 3-METHOXY-19,21-BISNORCHOLA-1,3,5(10),16-TETRAENE]", "values": [{"measurement": "CF (cardiac frequency): compound found to have an effect", "setting": "[2]; females (F)", "value": 11}, {"measurement": "EEG-T (electroencephalogram from temporal region): compound found to have an effect", "setting": "[2]; females (F)", "value": 11}, {"measurement": "EEG-V (electroencephalogram from vertex): compound found to have an effect", "setting": "[2]; females (F)", "value": 11}, {"measurement": "CF (cardiac frequency): compound found to have an effect", "setting": "[2]; males (M)", "value": 11}, {"measurement": "EEG-T (electroencephalogram from temporal region): compound found to have an effect", "setting": "[2]; males (M)", "value": 11}, {"measurement": "EEG-V (electroencephalogram from vertex): compound found to have an effect", "setting": "[2]; males (M)", "value": 11}]}
{"smiles": "CCCCC1=CCC2C3CCC4=C(CCC(=O)C4)C3CCC12C", "note": "(stereo not drawn) [Compound 12, 19,21-bisnorchola-5(10),16-dien-3-one]", "values": [{"measurement": "CF (cardiac frequency): compound found to have an effect", "setting": "[2]; males (M)", "value": 12}]}
